Experimental data: BindingDB's records for doi:10.1021/jm00117a011 (University of Kansas, 1988)

Columns and labels:
[1] = target: Adenosylhomocysteinase (Bos taurus); test: Evaluated for the 50% inhibition of bovine-liver S-Adenosyl-homocysteine (AdoHcy) hydrolase
[2] = target: Adenosylhomocysteinase (Bos taurus); test: as above; remark: listed apart in the source

Ki [1] | IC50 [2] | Structure (SMILES)
 | 1000 nM | Nc1ncnc2c1ncn2CC#CCO
> 1000 nM |  | Nc1ncnc2c1ncn2C/C=C(\CO)[C@@H](O)CO
166 nM |  | Nc1nccc2c1ncn2CC=C(CO)CO [2-[2-(4-Amino-imidazo[4,5-c]pyridin-1-yl)-ethylidene]-propane-1,3-diol]
110 nM |  | Nc1ncnc2c1ncn2CC=C(CO)CO [2-[2-(6-Amino-purin-9-yl)-ethylidene]-propane-1,3-diol]
 | 1230 nM | Nc1nccc2c1ncn2C/C=C/CO [4-(4-Amino-imidazo[4,5-c]pyridin-1-yl)-but-2-en-1-ol]
200 nM |  | Nc1nccc2c1ncn2C/C=C\CO [4-(4-Amino-imidazo[4,5-c]pyridin-1-yl)-but-2-en-1-ol]
90 nM |  | Nc1nccc2c1ncn2C/C=C\[C@@H](O)CO [5-(4-Amino-imidazo[4,5-c]pyridin-1-yl)-pent-3-ene-1,2-diol]
 | 950 nM | Nc1ncnc2c1ncn2C/C=C/C(O)CO (stereo not given) [5-(6-Amino-purin-9-yl)-pent-3-ene-1,2-diol]
200 nM |  | Nc1ncnc2c1ncn2C/C=C\[C@@H](O)CO [5-(6-Amino-purin-9-yl)-pent-3-ene-1,2-diol]
 | 930 nM | CC(C)=CCn1cnc2c(N)ncnc21 [9-(3-Methyl-but-2-enyl)-9H-purin-6-ylamine]

Structure (SMILES) | Ki [1] | IC50 [2]
Nc1ncnc2c1ncn2C/C=C\CO | 125 nM | 
Nc1ncnc2c1ncn2C/C=C/CO | 330 nM | 
Nc1nccc2c1ncn2CC#CCO [4-(4-Amino-imidazo[4,5-c]pyridin-1-yl)-but-2-yn-1-ol] | 160 nM | 
C/C(=C/Cn1cnc2c(N)ncnc21)CO [4-(6-Amino-purin-9-yl)-2-methyl-but-2-en-1-ol] | 170 nM | 
C/C(=C\Cn1cnc2c(N)ncnc21)CO [4-(6-Amino-purin-9-yl)-2-methyl-but-2-en-1-ol] | 500 nM | 
